Values of other authors, collected in US20050245902A1, “Substance delivery device” (priority 2002, published 2005).

Columns and labels:
[1] = in vivo

- half life [1]: 20 min
- water solubility: poorly water-soluble
SMILES: CC(=O)[C@H]1CC[C@H]2[C@@H]3CCC4=CC(=O)CC[C@]4(C)[C@H]3CC[C@]12C [progesterone]
